In test [1] the target is T1, human 5-HT6R (Homo sapiens, UniProt P50406).
T1 construct: expressed in transfected cells
Put plainly: [3H]-LSD radioligand binding assay at 5-HT6R in HEK293 cell membranes. Conditions: HEK293 cells with stable expression of human 5-HT6R, mean of at least three experiments (SEM ≤ 18%). As for the experimental part:
(§1) The biological evaluation was initiated by assessing the affinity of the compounds for 5-HT6R in the [^3H]-LSD radioligand binding assay. Experiments were performed in a stable HEK293 cell line expressing the human 5-HT6R [10]. […] Experiments were performed in Chinese hamster ovary (CHO) cells with the stable expression of human D3R (Eurofins, Celle-L’Evescault, France).
HEK293 cells with stable expression of human 5-HT6 receptors (prepared with the use of Lipofectamine 2000) were maintained at 37 °C in a humidified atmosphere with 5% CO2 and grown in Dulbecco’s modified Eagle medium containing 10% dialyzed fetal bovine serum and 500 μg/mL G418 sulfate. For membrane preparation, cells were sub-cultured in 150 cm^2 flasks, grown to 90% confluence, washed twice with phosphate buffered saline (PBS), prewarmed to 37 °C, and pelleted by centrifugation (200× g) in PBS containing 0.1 mM EDTA and 1 mM dithiothreitol. Prior to membrane preparation, pellets were stored at −80 °C.
The cell pellets were thawed and homogenized in 10 volumes of assay buffer using an Ultra Turrax tissue homogenizer(IKA, Warsaw, Poland), centrifuged twice at 35,000× g for 15 min at 4 °C, and incubated for 15 min at 37 °C between centrifugation rounds. The composition of the assay buffers was 50 mM Tris HCl, 0.5 mM EDTA, and 4 mM MgCl2. The assays were incubated in a total volume of 200 μL in 96-well microtiter plates for 1 h at 37 °C. The process of equilibration was terminated by rapid filtration through Unifilter plates with a 96-well cell harvester, and radioactivity retained on the filters was quantified on a Microbeta plate reader (PerkinElmer, Waltham, MA, USA). For displacement studies, the assay samples contained as radioligands (PerkinElmer, USA) 2 nM [^3H]-LSD (83.6 Ci/mmol). Nonspecific binding was defined with 10 μM methiothepine. Each compound was tested in triplicate at 7 concentrations (10^−10 to 10^−4 M). The inhibition constants (Ki) were calculated from the Cheng−Prusoff equation [30]. […]

Test [2] deals with D2R. Conditions: Figure 1; ref 25 (SB737050), ref 19 (I), ref 26 (PZ-1643), ref 27 (CPPQ); cited from earlier work.
In test [3] the target is human D3R (Homo sapiens, UniProt P35462). Put plainly: D3R screening binding with [3H]-methylspiperone in CHO cells (Eurofins). The settings on record: percentage displacement at 10^-6 M; CHO cells with stable expression of human D3R; read-out: %inh Binding to D3R @1μM. As to the method:
as §1

Test [4] deals with T2, human serotonin 5-HT6R (Homo sapiens, UniProt P50406).
T2 construct: host or cells: 1321N1 (frozen recombinant cells)
T2 sequence (P50406 whole entry): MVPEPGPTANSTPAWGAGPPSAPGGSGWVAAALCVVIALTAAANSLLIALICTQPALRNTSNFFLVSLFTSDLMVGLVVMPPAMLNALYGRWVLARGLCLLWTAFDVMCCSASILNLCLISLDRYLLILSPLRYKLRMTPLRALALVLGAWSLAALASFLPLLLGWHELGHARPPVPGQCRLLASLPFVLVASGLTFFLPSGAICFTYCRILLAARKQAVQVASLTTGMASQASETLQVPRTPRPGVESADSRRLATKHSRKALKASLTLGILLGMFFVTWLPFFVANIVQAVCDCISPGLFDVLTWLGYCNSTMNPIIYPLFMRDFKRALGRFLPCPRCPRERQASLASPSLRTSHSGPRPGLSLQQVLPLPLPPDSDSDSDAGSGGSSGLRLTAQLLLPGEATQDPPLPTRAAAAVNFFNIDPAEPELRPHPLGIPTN
Put plainly: cAMP cellular assay, inhibition of 5-CT-induced cAMP production in 1321N1 cells. The settings on record: 1321N1 cells expressing human 5-HT6R; cAMP production induced by 5-CT (1000 nM); read-out: Kb, antagonist properties at 5-HT6R. Type of test: cell-based. As to the method:
The experiments were performed in 1321N1 cells expressing the human serotonin 5-HT6R.
The functional properties of compounds on 5-HT6R were evaluated using its ability to inhibit cAMP production induced by 5-CT (1000 nM), a 5-HT6R agonist. The compound was tested in triplicate at 8 concentrations (10^−11 to 10^−4 M). The level of adenylyl cyclase activity was measured using frozen recombinant 1321N1 cells expressing the human serotonin 5-HT6R (PerkinElmer). Total cAMP was measured using the LANCE cAMP detection kit (PerkinElmer), according to the manufacturer’s directions. For quantification of cAMP levels, cells (5 μL) were incubated with a mixture of compounds (5 μL) for 30 min at room temperature in 384-well white opaque microtiter plates. After incubation, the reaction was stopped, and cells were lysed by the addition of 10 μL of working solution (5 μL of Eu-cAMP and 5 μL of ULight-anti-cAMP). The assay plate was incubated for 1 h at room temperature. Time-resolved fluorescence resonance energy transfer (TR-FRET) was detected by an Infinite M1000 Pro (Tecan, Männedorf, Switzerland) using instrument settings from LANCE cAMP detection kit manual(PerkinElmer, Waltham, MA, USA).
Background: cAMP levels reflect the balance of adenylyl cyclase and phosphodiesterase activity.

Test [5] deals with T1, human 5-HT6R. Put plainly: 5-HT6R constitutive activity at Gs signaling in NG108-15 cells (CAMYEL BRET cAMP sensor). The class given is cell-based. Conditions: NG108-15 cells transiently expressing 5-HT6R; Figure 3. As to the method:
The experiments were performed in 1321N1 cells expressing the human serotonin 5-HT6R. […] Neuroblastoma cells (NG108-15) were grown in DMEM (Dulbecco’s modified Eagle’s medium) supplemented with 10% heat-inactivated fetal bovine serum, 2% HAT (hypoxanthine/aminopterin/thymidine, Life technologies), glutamine, and antibiotics at 37 °C under 5% of CO2. cAMP measurement was performed in cells transiently transfected with a construct expressing the CAMYEL bioluminescence resonance energy transfer (BRET) sensor for cAMP [44] (3 μg DNA/million cells) alone or in combination with a plasmid encoding the human 5-HT6R (0.5 μg DNA/million cells). Transfection of the NG108-15 cells was conducted in suspension using Lipofectamine 2000, according to the manufacturer’s protocol. Plasmids and lipofectamine were diluted in Opti-MEM Reduced Serum Media (Gibco) and incubated at room temperature for 20 min before being added to the cells. […] Coelanterazine H (Molecular Probes) was added in each well at a final concentration of 5 μM and incubated at room temperature for 5 min before measuring BRET in a Mithras LB 940 plate reader (Berthold Technologies, Bad Wildbad, Germany). The decrease in CAMYEL BRET induced by the coexpression of the probe with the 5-HT6R as compared to the BRET measured in cells expressing the probe alone was used as an index of the 5-HT6R constitutive activity.
In general terms: BRET reads energy transfer from a luciferase to a nearby fluorophore.

Test [6] has as its target 5-HT6R. Conditions: Figure 1; ref 25 (SB737050), ref 19 (I), ref 26 (PZ-1643), ref 27 (CPPQ); cited from earlier work.
Test [7] deals with D3R. Also on record: method as in earlier work. Conditions: Figure 1; ref 25 (SB737050), ref 19 (I), ref 26 (PZ-1643); cited from earlier work.

Molecules are shown by their SMILES. Structures can show the parent of a compound that is named as a salt.

Chain of human D3R (P35462 whole entry): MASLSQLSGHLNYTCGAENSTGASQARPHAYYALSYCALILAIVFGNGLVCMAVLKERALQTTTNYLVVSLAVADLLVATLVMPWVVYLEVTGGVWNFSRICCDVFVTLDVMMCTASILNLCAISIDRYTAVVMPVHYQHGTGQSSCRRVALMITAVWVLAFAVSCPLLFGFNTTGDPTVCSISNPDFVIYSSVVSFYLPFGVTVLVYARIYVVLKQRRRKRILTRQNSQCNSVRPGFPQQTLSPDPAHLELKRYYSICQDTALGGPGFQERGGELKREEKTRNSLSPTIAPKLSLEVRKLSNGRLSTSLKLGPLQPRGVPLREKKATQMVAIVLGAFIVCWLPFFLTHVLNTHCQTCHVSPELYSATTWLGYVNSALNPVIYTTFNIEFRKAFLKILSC
T1 sequence (P50406 whole entry): as the sequence (P50406 whole entry) above

Regarding `CC(C)CN1CCC[C@H]1CNc1nc2ccccc2c2c1ccn2S(=O)(=O)c1cccc(Cl)c1` [Compound 18, (S)-1-((3-chlorophenyl)sulfonyl)-N-((1-isobutylpyrrolidin-2-yl)methyl)-1H-pyrrolo[3,2-c]quinolin-4-amine hydrochloride], in test [1], the affinity, expressed as Ki, was 0.065 µM. As to `O=S(=O)(c1cccc(Cl)c1)n1ccc2c(NC[C@H]3CCCN3CCO)nc3ccccc3c21` [Compound 19, (R)-2-(2-(((1-((3-chlorophenyl)sulfonyl)-1H-pyrrolo[3,2-c]quinolin-4 yl)amino)methyl)-pyrrolidin-1-yl)ethan-1-ol hydrochloride], the Ki – broadly, the dissociation constant of the complex between target and ligand, obtained from inhibition or displacement – in test [1] came to 0.058 µM.

Molecule `CCN1CC[C@H](CNc2nc3ccccc3c3c2ccn3S(=O)(=O)c2cccc(Cl)c2)C1` [Compound 15, (R)-1-((3-chlorophenyl)sulfonyl)-N-((1-ethylpyrrolidin-3-yl)methyl)-1H-pyrrolo[3,2-c]quinolin-4-amine hydrochloride] came in with a Ki in test [1] of 0.038 µM. `C[C@H](O)CN1CC[C@H](Nc2nc3ccccc3c3c2ccn3S(=O)(=O)c2cccc(Cl)c2)C1` [Compound 8, (S)-1-((S)-3-((1-((3-chlorophenyl)sulfonyl)-1H-pyrrolo[3,2-c]quinolin-4-yl)amino)pyrrolidin-1-yl)propan-2-ol]: the Ki in test [1] was determined as 0.011 µM. In the case of `O=S(=O)(c1cccc(Cl)c1)n1ccc2c(N[C@H]3CCNC3)nc3ccccc3c21` [CPPQ, (S)-1-((3-chlorophenyl)sulfonyl)-N-(pyrrolidin-3-yl)-1H-pyrrolo[3,2-c]quinolin-4-amine], in test [2], the “pKi D2R” value is reported as 6.0. As for `O=S(=O)(c1cccc(Cl)c1)n1ccc2c(N[C@H]3CCN(CCO)C3)nc3ccccc3c21` [Compound 10, (S)-2-(3-((1-((3-chlorophenyl)sulfonyl)-1H-pyrrolo[3,2-c]quinolin-4-yl)amino)pyrrolidin-1-yl)ethan-1-ol], the affinity in test [1] corresponds to a Ki of 0.084 µM. On to `CC(C)CN1CCC[C@@H]1CNc1nc2ccccc2c2c1ccn2S(=O)(=O)c1cccc(Cl)c1.Cl` [Compound 17, (R)-1-((3-chlorophenyl)sulfonyl)-N-((1-isobutylpyrrolidin-2-yl)methyl)-1H-pyrrolo[3,2-c]quinolin-4-amine hydrochloride], for which the Ki in test [1] is 0.027 µM. The inhibition at 1 µM in test [3] turned out to be 57%. For the same molecule, the antagonist dissociation constant (Kb) (in general, the equilibrium dissociation constant of an antagonist, usually derived from a functional assay) in test [4] is 0.0038 µM. The “Impact on 5-HT6R-operated Gs signaling (constitutive activity)” value in test [5] was “neutral antagonist”.

Consider `C[C@@H](O)CN1CC[C@H](Nc2nc3ccccc3c3c2ccn3S(=O)(=O)c2cccc(Cl)c2)C1` [Compound 9, (R)-1-((S)-3-((1-((3-chlorophenyl)sulfonyl)-1H-pyrrolo[3,2-c]quinolin-4-yl)amino)pyrrolidin-1-yl)propan-2-ol], for which the affinity in test [1], expressed as Ki, was 0.006 µM. Further, the inhibition at 1 µM in test [3] is 54%. For the molecule `CCN1CCC[C@H]1CNc1nc2ccccc2c2c1ccn2S(=O)(=O)c1cccc(Cl)c1` [Compound 14, (S)-1-((3-chlorophenyl)sulfonyl)-N-((1-ethylpyrrolidin-2-yl)methyl)-1H-pyrrolo[3,2-c]quinolin-4-amine hydrochloride], the affinity in test [1] corresponds to a Ki of 0.072 µM. The molecule `CCN1CC[C@@H](CNc2nc3ccccc3c3c2ccn3S(=O)(=O)c2cccc(Cl)c2)C1` [Compound 16, (S)-1-((3-chlorophenyl)sulfonyl)-N-((1-ethylpyrrolidin-3-yl)methyl)-1H-pyrrolo[3,2-c]quinolin-4-amine hydrochloride] registered an inhibitory constant (Ki) in test [1] of 0.064 µM. `CCN1CCC[C@@H]1CNc1nc2ccccc2c2c1ccn2S(=O)(=O)c1cccc(Cl)c1.Cl` [Compound 13, (R)-1-((3-chlorophenyl)sulfonyl)-N-((1-ethylpyrrolidin-2-yl)methyl)-1H-pyrrolo[3,2-c]quinolin-4-amine hydrochloride] yielded a Ki in test [1] of 0.027 µM. Also, the inhibition at 1 µM in test [3] was 58%. In addition, in test [4], the antagonist dissociation constant (Kb) amounted to 0.0012 µM. In test [5], the “Impact on 5-HT6R-operated Gs signaling (constitutive activity)” value is reported as “neutral antagonist”.

`COc1cc2c(cc1NS(=O)(=O)c1ccc(-c3cccs3)cc1)CCN(C)CC2` [SB737050]: the “pKi 5-HT6R” value in test [6] is on record as 9.0. Further, in test [7], the “pKi D3R” value is on record as 7.9. In test [2], the “pKi D2R” value is listed as 7.7. On to `O=S(=O)(c1cccc(Cl)c1)n1ccc2c(NC[C@@H]3CCCN3CCO)nc3ccccc3c21` [Compound 20, (S)-2-(2-(((1-((3-chlorophenyl)sulfonyl)-1H-pyrrolo[3,2-c]quinolin-4 yl)amino)methyl)pyrrolidin-1-yl)ethan-1-ol hydrochloride], for which the inhibition constant (Ki) in test [1] stood at 0.077 µM. In the case of `CN1Cc2c(ccc3c2ccn3S(=O)(=O)c2c(Cl)nc3sccn23)CC1CCO` (centres unmarked) [I], the “pKi 5-HT6R” value in test [6] is reported as 8.7. Besides, in test [7], the “pKi D3R” value is 9.0. Besides, the “pKi D2R” value in test [2] was 7.4. Molecule `COCCCN1CCC[C@@H]1CNc1nc2ccccc2c2c1ccn2S(=O)(=O)c1cccc(Cl)c1` [Compound 21, (R)-1-((3-chlorophenyl)sulfonyl)-N-((1-(3-methoxypropyl)pyrrolidin-2-yl)methyl)-1H-pyrrolo[3,2-c]quinolin-4-amine] displayed a Ki in test [1] of 0.087 µM.

The molecule `COCCCN1CC[C@H](Nc2nc3ccccc3c3c2ccn3S(=O)(=O)c2cccc(Cl)c2)C1` [Compound 11, (S)-1-((3-chlorophenyl)sulfonyl)-N-(1-(3-methoxypropyl)pyrrolidin-3-yl)-1H-pyrrolo[3,2-c]quinolin-4-amine] gave an inhibitory constant (Ki) in test [1] of 0.017 µM. The inhibition at 1 µM in test [3] turned out to be 25%. As for `O=S(=O)(c1cccc(Cl)c1)n1ccc2c(N[C@H]3CCN(CCC(F)(F)F)C3)nc3ccccc3c21` [Compound 12, (S)-1-((3-chlorophenyl)sulfonyl)-N-(1-(3,3,3-trifluoropropyl)pyrrolidin-3-yl)-1H-pyrrolo[3,2-c]quinolin-4-amine], in test [1], the Ki came to 0.556 µM.
